Laboratory results from PMC12608329, “Inhibition of α-Glucosidase Activity and Islet Amyloid PolyPeptide Fibril Formation by Rubus ulmifolius Fruit Extract: A Potential Therapeutic Approach for Type 2 Diabetes Mellitus” (Plants, 2025).

What was measured:
[1] = ABTS radical scavenging activity; settings: mean ± SD, three independent assays
Procedure: [50]. A volume of 10 μL of the extract was mixed with 1 mL of ABTS+ solution previously diluted to reach an absorbance of approximately 0.70 ± 0.05 (mean ± SD). After 1 min of incubation, the absorbance was recorded at 734 nm. Trolox (6-hydroxy-2,5,7,8-tetramethylchroman-2-carboxylic acid) was employed as the reference antioxidant. Results were expressed as the effective concentration required to achieve 50% reduction of the initial absorbance (EC50).

IAPP = tested on: IAPP; design: method as in PMID 40305223; settings: cited from earlier work
[2] = tested on: human islets exposed to amylin; design: method as in PMID 34614009; settings: cited from earlier work

Compound: Cc1c(C)c2c(c(C)c1O)CCC(C)(C(=O)O)O2 (centres unmarked) [Trolox, 6-hydroxy-2,5,7,8-tetramethylchroman-2-carboxylic acid]
- ABTS EC50 [1]: 3.4 ± 0.3 mg/L

Compound: COc1cc(/C=C/C(=O)CC(=O)/C=C/c2ccc(O)c(OC)c2)ccc1O [curcumin]
- IAPP aggregation (IAPP): reduce IAPP aggregation

Compound: OC[C@H]1O[C@@H](Oc2cc3c(O)cc(O)cc3[o+]c2-c2ccc(O)c(O)c2)[C@H](O)[C@@H](O)[C@@H]1O [cyanidin 3-O-glucoside, cyanidin-3-O-glucoside]
- amyloid formation in human islets exposed to amylin [2]: inhibit amyloid formation
- cell viability of human islets exposed to amylin [2]: increase cell viability

Compound: epigallocatechin 3-gallate
- IAPP aggregation (IAPP): reduce IAPP aggregation
